According to US20230131966A1, “FUNGICIDAL AMIDES” (FMC Corporation, priority 2020, published 2023):

How the values were obtained:
Assay type in all cases: in vivo
[1] = tested on: Phakopsora pachyrhizi; assay: Test A: Asian soybean rust control on soybean seedlings; details: soybean seedlings, 100 = 100% disease control, 0 = no control
[2] = tested on: Puccinia recondita f. sp. tritici; assay: Test B: wheat leaf rust control on wheat seedlings; details: wheat seedlings, 100 = 100% disease control, 0 = no control
[3] = tested on: Plasmopara viticola; assay: Test D: grape downy mildew control on grape seedlings; details: 250 ppm, 100 = 100% disease control, 0 = no control
[4] = tested on: Botrytis cinerea; assay: Test E: tomato Botrytis control on tomato seedlings; details: 250 ppm, 100 = 100% disease control, 0 = no control
[5] = tested on: Phytophthora infestans; assay: whole plant or invertebrate; details: tomato seedlings, 100 = 100% disease control, 0 = no control; for Test F disease control rating: 250 ppm
[6] = tested on: Zymoseptoria tritici; assay: Test C: wheat leaf blotch control on wheat seedlings; details: 250 ppm, wheat seedlings, 100 = 100% disease control, 0 = no control
[7] = tested on: Erysiphe graminis f. sp. tritici; assay: Test G: wheat powdery mildew control on wheat seedlings; details: 250 ppm, 100 = 100% disease control, 0 = no control

| SMILES | Test A disease control rating ([1]; 250 ppm) [%] | Test E disease control rating [4] [%] | Test B disease control rating ([2]; 250 ppm) [%] | Test F disease control rating [5] [%] | Test C disease control rating [6] [%] | Test G disease control rating [7] [%] | also measured |
| --- | --- | --- | --- | --- | --- | --- | --- |
| COc1ccnc(C(=O)N[C@@H](C)C(=O)OC(C)C2CCCCC2)c1O (single isomer, unassigned) [Compound 52] |  |  |  |  |  |  | Test A disease control rating ([1]; 50 ppm): 32%; Test B disease control rating ([2]; 50 ppm): 9% |
| COc1ccnc(C(=O)NC(C)C(=O)OC(C)C2CCC(C(F)(F)F)CC2)c1O (mixture of isomers) [Compound 179] | 100 | 0 | 100 | 0 | 99 |  | Test D disease control rating [3]: 82% |
| COc1ccnc(C(=O)N[C@@H](C)C(=O)OC(C)c2ccc(C3CCCCC3)cc2)c1OC(C)=O (single isomer, unassigned) [Compound 86] | 73 | 0 |  | 0 | 65 | 0 | Test D disease control rating [3]: 24% |
| COc1ccnc(C(=O)N[C@@H](C)C(=O)OC(C)c2ccccc2Cc2ccccc2)c1O (single isomer, unassigned) [Compound 111] | 97 | 16 | 9 | 0 | 56 | 0 |  |
| COc1ccnc(C(=O)N[C@@H](C)C(=O)OC(C)c2ccccc2Oc2ccc(F)cc2)c1O (single isomer, unassigned) [Compound 59] | 100 | 0 | 100 | 0 |  | 13 | Test D disease control rating [3]: 66% |
| COc1ccnc(C(=O)N[C@@H](C)C(=O)OC(C)c2ccccc2Oc2ccccc2)c1O (single isomer, unassigned) [Compound 105] | 98 | 0 | 28 | 0 | 67 | 0 |  |
| COc1ccnc(C(=O)NC(C)C(=O)OC(C)c2ccc(C3CCCC3)cc2)c1O (mixture of isomers) [Compound 65] |  |  |  |  |  |  | Test A disease control rating ([1]; 50 ppm): 100%; Test B disease control rating ([2]; 50 ppm): 98% |
| COc1ccnc(C(=O)N[C@@H](C)C(=O)OC(C)c2ccccc2Cc2ccccc2)c1OC(C)=O (single isomer, unassigned) [Compound 110] | 100 | 0 | 99 | 0 | 92 | 0 |  |
| COc1ccnc(C(=O)N[C@@H](C)C(=O)OC(C)c2cccc3ccccc23)c1OC(C)=O (single isomer, unassigned) [Compound 115] | 89 | 0 | 55 | 0 | 86 | 0 |  |
| COc1ccnc(C(=O)N[C@@H](C)C(=O)OC(C)c2ccc(C3CCCCC3)cc2)c1O (single isomer, unassigned) [Compound 73] |  |  |  |  |  |  | Test A disease control rating ([1]; 50 ppm): 0%; Test B disease control rating ([2]; 50 ppm): 41% |
| COc1ccnc(C(=O)N[C@@H](C)C(=O)OC(C)c2ccc(C3CCCCC3)cc2)c1O (single isomer, unassigned) [Compound 74] |  |  |  |  |  |  | Test A disease control rating ([1]; 50 ppm): 100%; Test B disease control rating ([2]; 50 ppm): 99% |
| COc1ccnc(C(=O)N[C@@H](C)C(=O)OC(C)C2CCCCC2)c1O (single isomer, unassigned) [Compound 51] |  |  |  |  |  |  | Test A disease control rating ([1]; 50 ppm): 100%; Test B disease control rating ([2]; 50 ppm): 100% |
| COc1ccnc(C(=O)NC(C)C(=O)OC(C)c2ccc3ccccc3c2)c1O (racemic) [Compound 76] |  |  |  |  |  |  | pest or weed control at 250 ppm ([1]; Phakopsora pachyrhizi, 250 ppm, read-out: Test A disease control rating): 100%; pest or weed control at 250 ppm ([4]; Botrytis cinerea, read-out: Test E disease control rating): 0%; pest or weed control at 250 ppm ([2]; Puccinia recondita, 250 ppm, read-out: Test B disease control rating): 100%; pest or weed control at 250 ppm ([5]; Phytophthora infestans, in Solanum lycopersicum, read-out: Test F disease control rating, 250 ppm): 0%; pest or weed control at 250 ppm ([6]; Zymoseptoria tritici, read-out: Test C disease control rating): 99% |
| COc1ccnc(C(=O)N[C@@H](C)C(=O)OC(c2ccc(C3CCCCC3)cc2)C(C)C)c1OC(C)=O (stereo partly shown) [Compound 96] |  |  |  |  |  |  | Test A disease control rating ([1]; 50 ppm): 94%; Test B disease control rating ([2]; 50 ppm): 95% |
| COc1ccnc(C(=O)N[C@@H](C)C(=O)OC(C)c2ccc(F)cc2Cc2ccc(F)cc2)c1O (single isomer, unassigned) [Compound 41] | 100 | 0 | 100 | 24 |  | 0 | Test D disease control rating [3]: 70% |
| COc1ccnc(C(=O)N[C@@H](C)C(=O)OC(C)c2ccccc2Oc2ccccc2)c1O (single isomer, unassigned) [Compound 106] | 100 | 16 | 92 | 0 | 90 | 0 |  |
| COc1ccnc(C(=O)N[C@@H](C)C(=O)OC(C)c2ccccc2Cc2ccccc2)c1O (single isomer, unassigned) [Compound 109] | 100 | 98 | 98 | 0 | 85 | 0 |  |
| COc1ccnc(C(=O)N[C@@H](C)C(=O)OC(C)c2ccccc2Oc2ccccc2)c1OC(C)=O (single isomer, unassigned) [Compound 108] | 43 | 0 | 32 | 0 | 75 | 0 |  |
| COc1ccnc(C(=O)NC(C)C(=O)OC(C)c2ccc(C3CC3)cc2)c1OC(C)=O (mixture of isomers) [Compound 71] |  |  |  |  |  |  | Test A disease control rating ([1]; 50 ppm): 89% |
| CCOC(=O)c1cnn(-c2ccc(C(C)OC(=O)C(C)NC(=O)c3nccc(OC)c3O)cc2)c1 (mixture of isomers) [Compound 50] |  |  | 68 |  | 54 |  |  |
| COc1ccnc(C(=O)N[C@@H](C)C(=O)OC(C)c2ccccc2Cc2ccccc2)c1OC(C)=O (single isomer, unassigned) [Compound 112] | 0 | 0 | 55 | 0 | 83 | 0 |  |
| COc1ccnc(C(=O)N[C@@H](C)C(=O)OC(C)C2CCCCC2)c1OC(C)=O (single isomer, unassigned) [Compound 88] | 99 | 0 |  | 0 | 58 | 0 | Test D disease control rating [3]: 43% |
| COc1ccnc(C(=O)N[C@@H](C)C(=O)OC(C)c2ccc(F)cc2Cc2ccc(F)cc2)c1O (single isomer, unassigned) [Compound 54] | 79 | 0 | 68 | 0 |  | 0 | Test D disease control rating [3]: 55% |
| COc1ccnc(C(=O)NC(C)C(=O)OC(C)c2ccccc2Oc2ccc(F)cc2)c1O (mixture of isomers) [Compound 55] | 100 | 0 | 98 | 0 |  | 13 | Test D disease control rating [3]: 52% |
| COc1ccnc(C(=O)N[C@@H](C)C(=O)OC(C)c2ccccc2Oc2ccccc2)c1OC(C)=O (single isomer, unassigned) [Compound 107] | 100 | 0 | 98 | 0 | 87 | 0 |  |
| COc1ccnc(C(=O)NC(C)C(=O)OC(C)c2ccc(F)cc2Cc2ccc(F)cc2)c1O (mixture of isomers) [Compound 42] | 100 | 0 | 100 | 0 |  | 0 | Test D disease control rating [3]: 66% |
| COc1ccnc(C(=O)NC(C)C(=O)OC(C)C23CC4CC(CC(C4)C2)C3)c1O (racemic) [Compound 44] |  |  |  |  |  |  | pest or weed control at 50 ppm ([1]; Phakopsora pachyrhizi, 50 ppm, read-out: Test A disease control rating): 75%; pest or weed control at 50 ppm ([2]; Puccinia recondita, 50 ppm, read-out: Test B disease control rating): 55% |
